Assay results reported in US12084431B2, “Pharmaceutical salts of pyrimidine derivatives and method of treating disorders” (ARIAD Pharmaceuticals, Inc., priority 2018, dated 2024).

Legend:
[1] = Thermodynamic aqueous solubility studies (de-ionized water, 24 h, HPLC concentration, filtrate pH, XRPD of solid); settings: for solubility at 24 h: de-ionized water, pH 6.97, water, thermodynamic from solid; for pH at Saturation: pH of filtrate after 24 h slurry in de-ionized water (pH 6.97), ambient temperature
Method: The resulting solid material was isolated by centrifugation and analyzed by XRPD, while the filtrate was analyzed by HPLC for concentration determination. The pH of the resulting filtrate was also determined.

[2] = Stability stress testing (ambient light, 40° C./75% RH, 80° C., 7 days; XRPD and HPLC purity); format: physicochemical; settings: for Purity, 40° C./75% RH / Purity, 80° C. / Purity, Ambient light: HPLC purity after 7 days, open vial; for Purity, Ambient light: room temperature; for XRPD after storage: 7 days; for Input purity: HPLC purity before stress storage; for Chemical Stability: summary in Table 17
Method: Approximately 5 mg of the appropriate samples were placed into 2 mL clear glass vials and the vials were all stored open under the conditions of ambient light, 40° C./75% RH, and 80° C. for 7 days, respectively. The ambient light sample was left open on the bench at room temperature. The 80° C. sample was placed open into an 80° C. oven.

[3] = Vapour sorption analysis (GVS, hygroscopicity); format: physicochemical; settings: % uptake at 90% RH
Method: Approximately 10 mg of the sample was placed into a mesh vapor sorption balance pan and loaded into an IGASorp Moisture Sorption Analyzer balance by Hiden Analytical. The sample was subjected to a ramping profile from 40 to 90% relative humidity (RH) at 10% increments to 90% RH, maintaining the sample at each step until a stable weight had been achieved (98% step completion). After completion of the sorption cycle, the sample was dried using the same procedure (initially from 90% RH to 0% RH and finally taken back to the starting point of 40% RH). The sorption/desorption profiles were then repeated to give a double-cycle plot. The weight changes during the sorption/desorption cycles were plotted, allowing for the hygroscopic nature of the sample to be determined.

[4] = Phase 1/2 study, safety (adverse events, dose limiting toxicities, MTD); settings: human, in vivo
Method: Patients with advanced NSCLC refractory to standard therapy received daily oral doses (5-120 mg) of Compound (A) in the dose-escalation phase. Compound (A) was provided as polymorphic Form-I of the succinate salt of Compound (A). Compound (A) was formulated as a drug-in-capsule with no excipients and administered orally. Preliminary antitumor activity (by RECIST v1.1), safety and pharmacokinetics are reported for patients receiving at least one dose.
As part of the same phase ½ study as described in Example 12, a dose escalation study was performed. […] 2018.
The phase 2 portion of the study was initiated to expand the study in two 160 mg QD cohorts (EGFR exon 20 mutant NSCLC patients with or without brain metastases) and continue to enroll more patients in the 120 mg cohort.

[5] = tested on: advanced NSCLC (EGFR exon 20 insertions); experiment: Phase 1/2 study, antitumor activity / disease assessment by RECIST v1.1; format: in vivo, human; settings: 160 mg QD
Method: 52 patients were enrolled as of 30 Jan. 2018.
Disease stabilization started to be reported at the 40 mg QD cohort. Disease assessments for patients who had at least one disease assessment following treatment with Compound (A) are shown in Table 21. All patients who responded have EGFR exon 20 insertion mutations and had previously been treated with platinum-based chemotherapy, EGFR TKIs, or PD-1 inhibitors.

[6] = Solubility in Water, de-ionized water (pH 6.97), slurry shaken at ambient temperature for 24 h, filtrate by HPLC, salts of Compound (A)
[7] = all storage conditions (ambient light, 40° C./75% RH, 80° C.)
[8] = other 2 conditions (40° C./75% RH and 80° C.)
[9] = number of the 26 patients in efficacy analysis

Compound	pH at Saturation [1]	Purity, 40° C./75% RH [2]	Purity, 80° C. [2]	Purity, Ambient light ([2]; ambient light)	GVS (Hygroscopicity) [3]	solubility at 24 h [1, 6]	XRPD after storage [2, 7]	Input purity [2]	Chemical Stability [2]	XRPD after storage ([2]; ambient light)	also measured
C=CC(=O)Nc1cc(Nc2ncc(C(=O)OC(C)C)c(-c3cn(C)c4ccccc34)n2)c(OC)cc1N(C)CCN(C)C [Free Base, isopropyl 2-((5-acrylamido-4-((2-(dimethylamino)ethyl) (methyl)amino)-2-methoxyphenyl)amino)-4-(1-methyl-1H-indol-3-yl)pyrimidine-5-carboxylate]	7.81	99.5	99.5	99.5	0.3%	–	–	–	–	–	solubility at 24 h [1]: < 10 µg/mL
C=CC(=O)Nc1cc(Nc2ncc(C(=O)OC(C)C)c(-c3cn(C)c4ccccc34)n2)c(OC)cc1N(C)CCN(C)C.O=C(O)/C=C/C(=O)O [Fumarate, isopropyl 2-((5-acrylamido-4-((2-(dimethylamino)ethyl) (methyl)amino)-2-methoxyphenyl)amino)-4-(1-methyl-1H-indol-3-yl)pyrimidine-5-carboxylate fumarate]	3.98	99.5	99.5	99.5	2.0%	100 µg/mL	No change under all storage	99.7	Stable	–	–
Br.C=CC(=O)Nc1cc(Nc2ncc(C(=O)OC(C)C)c(-c3cn(C)c4ccccc34)n2)c(OC)cc1N(C)CCN(C)C [HBr, isopropyl 2-((5-acrylamido-4-((2-(dimethylamino)ethyl) (methyl)amino)-2-methoxyphenyl)amino)-4-(1-methyl-1H-indol-3-yl)pyrimidine-5-carboxylate hydrobromide]	6.30	99.6	99.5	99.6	0.6%	100 µg/mL	No change under all storage	99.7	Stable	–	–
C=CC(=O)Nc1cc(Nc2ncc(C(=O)OC(C)C)c(-c3cn(C)c4ccccc34)n2)c(OC)cc1N(C)CCN(C)C.Cl [HCl, isopropyl 2-((5-acrylamido-4-((2-(dimethylamino)ethyl) (methyl)amino)-2-methoxyphenyl)amino)-4-(1-methyl-1H-indol-3-yl)pyrimidine-5-carboxylate hydrochloride]	6.47	74.5	91.3	95.1	10.%	5800 µg/mL	–	99.0	Degradation	No change at ambient light;	XRPD after storage [2, 8]: changes observed in other 2
C=CC(=O)Nc1cc(Nc2ncc(C(=O)OC(C)C)c(-c3cn(C)c4ccccc34)n2)c(OC)cc1N(C)CCN(C)C.CS(=O)(=O)O [Mesylate, isopropyl 2-((5-acrylamido-4-((2-(dimethylamino)ethyl) (methyl)amino)-2-methoxyphenyl)amino)-4-(1-methyl-1H-indol-3-yl)pyrimidine-5-carboxylate mesylate]	2.90	99.6	99.6	99.6	Drying Form	> 70000 µg/mL	–	99.7	Stable	No change at ambient light;	–
C=CC(=O)Nc1cc(Nc2ncc(C(=O)OC(C)C)c(-c3cn(C)c4ccccc34)n2)c(OC)cc1N(C)CCN(C)C.O=C(O)C(=O)O [Oxalate, isopropyl 2-((5-acrylamido-4-((2-(dimethylamino)ethyl) (methyl)amino)-2-methoxyphenyl)amino)-4-(1-methyl-1H-indol-3-yl)pyrimidine-5-carboxylate oxalate]	3.00	99.6	99.6	99.6	2.0%	6800 µg/mL	–	99.7	Stable	No change at ambient light;	XRPD after storage [2, 8]: minor changes observed in
C=CC(=O)Nc1cc(Nc2ncc(C(=O)OC(C)C)c(-c3cn(C)c4ccccc34)n2)c(OC)cc1N(C)CCN(C)C [Succinate, isopropyl 2-((5-acrylamido-4-((2-(dimethylamino)ethyl) (methyl)amino)-2-methoxyphenyl)amino)-4-(1-methyl-1H-indol-3-yl)pyrimidine-5-carboxylate succinate]	–	–	–	–	–	1900 µg/mL	No change under all storage	99.7	Stable	–	pH at Saturation ([1]; succinate): 5.00; Purity, 40° C./75% RH ([2]; succinate): 99.6; Purity, 80° C. ([2]; succinate): 99.6; Purity, Ambient light ([2]; ambient light, succinate): 99.6; GVS (Hygroscopicity) ([3]; succinate): 1.3%; patients with any TEAE leading to treatment discontinuation [4]: 18.8%; patients with at least 1 Grade≥3 TEAE [4]: 58.4%; patients with at least 1 Grade≥3 TRAE [4]: 29.7%; patients with at least 1 TEAE [4]: 98.0%; patients with at least 1 TRAE [4]: 91.1%; patients with at least 1 treatment-emergent SAE [4]: 35.6%; patients with at least 1 treatment-related SAE [4]: 10.9%; overall response rate (ORR) (best response) ([5]; 26 patients with EGFR exon 20 insertion mutations, 95% CI: 33.37%, 73.41%): 53.8%; disease control rate (DCR) ([5]; 26 patients with EGFR exon 20 insertion mutations, 95% CI: 69.85%, 97.55%): 88.5%; confirmed partial response (PR) [5, 9]: 7; unconfirmed PR awaiting confirmation [5, 9]: 6
C=CC(=O)Nc1cc(Nc2ncc(C(=O)OC(C)C)c(-c3cn(C)c4ccccc34)n2)c(OC)cc1N(C)CCN(C)C.O=S(=O)(O)O [Sulfate, isopropyl 2-((5-acrylamido-4-((2-(dimethylamino)ethyl) (methyl)amino)-2-methoxyphenyl)amino)-4-(1-methyl-1H-indol-3-yl)pyrimidine-5-carboxylate sulfate]	2.19	96.2	94.9	98.6	11%	–	–	98.3	Degradation	No change at ambient light;	solubility at 24 h [1]: > 240000 µg/mL
isopropyl 2-((5-acrylamido-4-((2-(dimethylamino)ethyl) (methyl)amino)-2-methoxyphenyl)amino)-4-(1-methyl-1H-indol-3-yl)pyrimidine-5-carboxylate hippurate	–	–	99.6	99.6	0.2%	–	No change under all storage	99.7	Stable	–	–
